In patent US20110201620A1, “2-(3-AMINOARYL) AMINO-4-ARYL-THIAZOLES AND THEIR USE AS C-KIT INHIBITORS” (AB SCIENCE, priority 2002, published 2011):
Values joined by “and” are separate entries in the source; they are usually repeats but may differ in a detail not shown here. Equal values may be shown once.

What was measured:
Solubility = format: physicochemical
Description: For detailed procedure refer to patent WO/2008/098949. AB1010 is also manufactured by AB Science, S.A. (France), or by Prestwick Chemical, Inc. (France). The chemical structure was confirmed by nuclear magnetic resonance, mass spectrometry, ultraviolet and infrared spectrometry, and elemental analysis. […] The compound, a white powder, was prepared according to the art to provide tablets. Tablet containing masitinib was used for each experiment.

[1] = system: locally advanced or metastatic, c-Kit positive GIST; experiment: Phase 2 clinical trial in advanced GIST, efficacy (RECIST, FDG-PET, PFS, OS); format: in vivo, human
Text: Methods; Patients: Patients enrolled in this study were aged over 18 years with inoperable, non-pretreated, histologically proven locally advanced or metastatic, c-Kit positive GIST. […] Exclusion criteria included: inadequate organ function defined via blood tests, severe liver or cardiac failure, and severe neurological or psychiatric disorders. Patients receiving a concomitant treatment within 4 weeks before inclusion, and pregnant or lactating women were also excluded. […] Time-to-event analyses were calculated from the date of first masitinib intake to the date of event (documented progression or death). Patients who had not progressed at the date of last tumor assessment were censored at that date for PFS. Patients alive at the time of the analysis were censored at the date of last contact for OS. Methods; Statistical analyses: Simon […] two-stage design was used for this prospective, multicenter, single-group, phase II trial. Fourteen patients were initially enrolled, with recruitment of an additional ten patients being dependent on the occurrence of at least one objective RECIST response. This population was further extended to a total of 30 patients to ensure a sufficient evaluable population for all end-points; the type I(α) error was 5% (two-sided) for all analyses. Quantitative variables were described by the number of filled and missing data, mean, standard deviation, median, minimum and maximum Qualitative variables were described by the number of missing data and, for each modality, frequency and percentage (referring to filled data). Time-to-event data were described using Kaplan-Meier (KM) estimates. The median was provided with its 95% confidence interval (95% CI). PFS rates were given every 6 months with KM estimates. All data analyses and reporting procedures used SAS v9.1 in a Windows XP operating system environment.

[2] = Kaplan-Meier estimate, listed as masitinib

Q: For `Cc1ccc(NC(=O)c2ccc(CN3CCN(C)CC3)cc2)cc1Nc1nc(-c2cccnc2)cs1` [Compound 066, 4-(4-methyl-piperazin-1-ylmethyl)-N-[4-methyl-3-(4-pyridin-3-yl-thiazol-2-ylamino)-phenyl]-benzamide], which “solubility in 0.1 M HCl” value (Solubility; 0.1 M HCl) is on record?
A: freely soluble

Q: And the “solubility in 0.1 M NaOH” value (Solubility; 0.1 M NaOH)?
A: practically insoluble

Q: And the solubility in dimethylsulfoxide (Solubility; dimethylsulfoxide)?
A: freely soluble

Q: And the solubility in ethanol (Solubility; ethanol)?
A: slightly soluble

Q: What about the solubility in n-hexane (Solubility; n-hexane) of the same compound?
A: practically insoluble

Q: What about the “solubility in propylene glycol” value (Solubility; propylene glycol) of the same compound?
A: slightly soluble

Q: What about the solubility in water (Solubility; water) of the same compound?
A: soluble

Q: And the “patients who never benefited from treatment (early resistance)” value ([1]; 1/30 patient)?
A: 3.3%

Q: What about the “OS rates (%) [95% CI] 12 months” value [1, 2] of the same compound?
A: 96.7%

Q: What about the “OS rates (%) [95% CI] 24 months” value [1, 2] of the same compound?
A: 89.9%

Q: And the “OS rates (%) [95% CI] 36 months” value [1, 2]?
A: 89.9%

Q: What about the “PFS rate (%) [95% CI] 6 months” value [1, 2] of the same compound?
A: 88.9%

Q: What about the “PFS rate (%) [95% CI] 12 months” value [1, 2] of the same compound?
A: 76.8%

Q: And the “PFS rate (%) [95% CI] 24 months” value [1, 2]?
A: 59.7% and 60%

Q: And the “PFS rate (%) [95% CI] 36 months” value [1, 2]?
A: 55.4% and 55%

Q: And the “PFS Median” value ([1]; Kaplan-Meier, ITT N = 30)?
A: 41.3 months

Q: What about the “Metabolic response CMR, At 1 month” value ([1]; N = 13, FDG-PET, complete metabolic response) of the same compound?
A: 0 (0.0%) n (%)

Q: What about the “Metabolic response CMR + PMR, At 1 month” value ([1]; N = 13, FDG-PET, metabolic response rate) of the same compound?
A: 9 (69.2%) n (%)

Q: And the “Metabolic response PMR, At 1 month” value ([1]; N = 13, FDG-PET, partial metabolic response, listed as masitinib)?
A: 9 (69.2%) n (%)

Q: What about the “Metabolic response SMD, At 1 month” value ([1]; N = 13, FDG-PET, stable metabolic disease, listed as masitinib) of the same compound?
A: 4 (30.8%) n (%)

Q: What about the “Metabolic response CMR, At 2 months” value ([1]; N = 14, FDG-PET, complete metabolic response, listed as masitinib) of the same compound?
A: 3 (21.4%) n (%)

Q: And the “Metabolic response CMR + PMR, At 2 months” value ([1]; N = 14, FDG-PET, metabolic response rate, listed as masitinib)?
A: 12 (85.7%) n (%)

Q: And the “Metabolic response PMR, At 2 months” value ([1]; N = 14, FDG-PET, partial metabolic response, listed as masitinib)?
A: 9 (64.2%) n (%)

Q: What about the “Metabolic response SMD, At 2 months” value ([1]; N = 14, FDG-PET, stable metabolic disease, listed as masitinib) of the same compound?
A: 2 (14.3%) n (%)

Q: And the “Response (RECIST) CR, 2 months” value ([1]; N = 30, complete response)?
A: 0 (0.0%) n (%)

Q: What about the “Response (RECIST) CR, Best Response” value ([1]; N = 30, complete response, listed as masitinib) of the same compound?
A: 1 (3.3%) n (%)

Q: What about the “Response (RECIST) CR + PR + SD, 2 months” value ([1]; N = 30, disease control rate) of the same compound?
A: 29 (96.7%) n (%)

Q: What about the “Response (RECIST) CR + PR + SD, Best Response” value ([1]; N = 30, disease control rate, listed as masitinib) of the same compound?
A: 29 (96.7%) n (%)

Q: What about the “Response (RECIST) CR + PR, 2 months” value ([1]; N = 30, overall response rate) of the same compound?
A: 6 (20.0%) n (%)

Q: What about the “Response (RECIST) CR + PR, Best Response” value ([1]; N = 30, overall response rate, listed as masitinib) of the same compound?
A: 16 (53.3%) n (%)

Q: What about the “Response (RECIST) PR, Best Response” value ([1]; N = 30, partial response, listed as masitinib) of the same compound?
A: 15 (50.0%) n (%)

Q: And the “Response (RECIST) PD, Best Response” value ([1]; N = 30, progressive disease, listed as masitinib)?
A: 1 (3.3%) n (%)

Q: What about the “Response (RECIST) SD, Best Response” value ([1]; N = 30, stable disease, listed as masitinib) of the same compound?
A: 13 (43.3%) n (%)

Q: And the “tumour response according to changes in tumour size (RECIST), evaluable patients” value ([1]; after 2 months of masitinib)?
A: 20%

Q: What about the “tumour response according to metabolic response using FDG-PET” value ([1]; after 2 months of masitinib) of the same compound?
A: 86%

Q: What about the “tumour response in patients assessed with DCE-US” value ([1]; after 2 months of masitinib) of the same compound?
A: 75%

Q: And the “patients with confirmed PR after 2 months, Simon first stage” value ([1]; first 14 patients)?
A: 4/14

Q: What about the “Median time to first objective response” value ([1]; range: 0.8-23.8 months) of the same compound?
A: 5.6 months
